Paper PMC5405074, “Receptor-Mediated Melanoma Targeting with Radiolabeled α-Melanocyte-Stimulating Hormone: Relevance of the Net Charge of the Ligand” (Frontiers in Endocrinology, 2017)
Entries after “also recorded” stand apart in the source; their conditions may differ. Like-named read-outs stand apart in the source and are kept apart here. Non-standard residues stand in square brackets, D forms with d. Residues, ends and D or L forms follow the SMILES beside them. *: point of attachment. DOTA = O=C(O)CN1CCN(CC(=O)O)CCN(CC(=O)*)CCN(CC(=O)O)CC1; pY = N[C@@H](Cc1ccc(OP(=O)(O)O)cc1)C(=O)O; Nle = CCCC[C@H](N)C(=O)O

Experiments:
[1] = cited from earlier work
From the text: Another approach to reduce uptake of radioactivity by the kidneys is coinjection of radiopeptides with basic amino acids. […] This method was first applied for ^111In-labeled DTPA-octreotide ([31], [32]) and ^90Y-labeled DOTA-[Tyr^3]-octreotide ([32], [33]).

[2] = Biodistribution of ^111In-labeled peptides in B16-F1 melanoma-bearing mice; type: in vivo, mouse (B6D2F1); conditions: female, iv, total radioactivity; for tissue to tissue ratio at 24 h / tissue to tissue ratio at 48 h: B6D2F1 (C57BL/6 × DBA/2F1 hybrids), mouse; for tissue to tissue ratio at 24 h / tissue to tissue ratio at 48 h / tissue to tissue ratio at 4 h: 185 kBq, mean tumor uptake divided by mean kidney uptake; for tissue to tissue ratio at 24 h: 24 h postinjection; for tissue to tissue ratio at 48 h: 48 h postinjection; for tissue to tissue ratio at 4 h / tissue uptake at 4 h: B6D2F1, mouse; for tissue to tissue ratio at 4 h: 4 h postinjection; for tissue uptake at 4 h: ^111In-labeled peptide, 185 kBq i.v., mean ± SEM of three experiments, n = 5 animals each
Experimental: (§1) About 5 × 10^5 B16-F1 cells were implanted subcutaneously to female B6D2F1 mice (C57BL/6 × DBA/2F1 hybrids; breeding pairs obtained from IFFA-CREDO, France). Seven days later, 185 kBq of ^111In-labeled ligand in 200 µL PBS/0.1% BSA were injected intravenously into the lateral tail vein of each mouse. Control mice were injected with a mixture of the tracer and 50 µg α-MSH to determine the non-specific uptake of radioligand. The animals were sacrificed 4, 24, and 48 h postinjection, dissected, and the tissues of interest collected, rinsed of excess blood, and weighed. The radioactivity emitted by each organ was measured in a γ-counter to determine the tissue uptake as percentage of the injected dose (ID) per gram of tissue. The total of injected radioactivity per animal was determined by extrapolation from the counts of a standard collected from the injection solution for each animal. Urine samples were collected at 10, 15, and 20 min and 4 h after injection and kept frozen at −80°C until use. Urine (1 vol) was mixed with methanol (2 vol) to precipitate proteins, and the supernatant was analyzed by RP-HPLC/γ-detection, as described in Ref. ([12]).
(§2) Results are expressed as means ± SEM, unless otherwise stated. The statistical evaluation of data was performed using the one- or two-way ANOVA test. When significant overall effects were obtained by ANOVA, multiple comparisons were made with the Bonferroni correction. P < 0.05 was considered statistically significant. The area under the curve (AUC) was calculated with the GraphPad Prism 6 software for the indicated period of time, using the mean tissue uptake value at each time point.

B16-F1 cells = experiment: Internalization by cultured B16-F1 cells; type: cell-based, mouse
Experimental: B16-F1 cells were seeded in six-well plates and incubated overnight in MEM at 37°C. For the internalization experiments, MEM was replaced by 1 mL MBM (see above) as internalization buffer. After a 1-h incubation at 37°C, 74 kBq of radioligand (^111In-labeled peptides) was added, and the plates were incubated for different time periods. Non-specific internalization was determined by addition of 50 µL of a 1 µM α-MSH solution to the incubation mixture. After the desired incubation times, the cells were extensively washed with MBM kept at 37°C to remove excess radioligand. Incubation in 2 mL ice-cold acid buffer (acetate-buffered Hank’s balanced salt solution, pH 5) for 10 min allowed dissociation of surface-bound ligand. After collection of the acid buffer fraction, the cells were rinsed once with cold MBM, and the washings were pooled with the acid buffer fraction. The cells were washed again with MBM kept at 37°C, lysed in a 1% Triton X-100 solution, and finally transferred to tubes for quantification. The radioactivity of all collected fractions was measured in a γ-counter. A counting plate underwent the same treatment as the plate incubated for the longest time, but its cells were detached with 0.02% EDTA in PBS instead of being lysed with the Triton X-100 solution. Cells from three wells were collected, counted, and thus allowed for normalization of the results obtained. Results were expressed as percent of the added dose per million cells.
Figure 3 Determination of internalization of [^111In] DOTA-NAP-D-Asp-D-Asp (A) and [^111In]DOTA-Phospho-MSH2-9 (B) by cultured B16-F1 cells exposed to the peptides at 37°C for 0.5, 2, and 3.5 h. Surface-bound radioligand was released by an acid buffer wash, and internalized radioligand was determined by lysing cells with detergent. Results are expressed in percent of the added dose per million cells.

[3] = test system: B16-F1 tumor-bearing mice; experiment: Biodistribution of ^111In-labeled peptides in B16-F1 melanoma-bearing mice; type: in vivo, mouse (B6D2F1)
Experimental: as §1, §2

[4] = cited from earlier work; remark: listed apart in the source
MC1R = conditions: cited from earlier work
[5] = parameters: method as in 2 sources, ref 37 = [37]; PMID 9574445; doi:10.3109/08860229809045104; 37 Kok RJ Haas M Moolenaar F de Zeeuw D Meijer DK . Drug delivery to the kidneys and the bladder with the low molecular weight protein lysozyme . Ren Fail ( 1998 ) 20 : 211 – 7 . 10.3109/0886022980904 ||| ref 38 = [38]; PMID 11578896; doi:10.1016/S0969-8051(01)00241-4; 38 Akizawa H Arano Y Mifune M Iwado A Saito Y Mukai T Effect of molecular charges on renal uptake of 111 In-DTPA-conjugated peptides . Nucl Med Biol ( 2001 ) 28 : 761 – 8 . 10.1016/S0969-8051(01)00241; conditions: urinary excretion; cited from earlier work
[6] = kidney, read-out: Kidney uptake

Q: Which results are given for `NCCCC[C@@H](N)C(=O)O` [D-Lys]?
A: Effect of coinjection on tumor uptake (in words) [1]: without affecting tumor uptake; Reduction of kidney uptake of radiopeptides by coinjection ([1]; coinjected with ^111In-/^90Y-labeled octreotide peptides): up to 65%

Q: What does the source list for `CCCC[C@H](NC(C)=O)C(=O)N[C@@H](CC(=O)O)C(=O)N[C@@H](Cc1c[nH]cn1)C(=O)N[C@H](Cc1ccccc1)C(=O)N[C@@H](CCCNC(=N)N)C(=O)N[C@@H](Cc1c[nH]c2ccccc12)C(=O)NCC(=O)N[C@@H](CCCCNC(=O)CN1CCN(CC(=O)O)CCN(CC(=O)O)CCN(CC(=O)O)CC1)C(=O)N[C@H](CC(=O)O)C(=O)N[C@H](CC(=O)O)C(=O)O` [[^111In]DOTA-NAP-D-Asp-D-Asp, metal not drawn] (Ac-[Nle]DH[dF]RWGK(DOTA)[dD][dD]-OH; N-terminus and C-terminus assumed)?
A: tissue to tissue ratio at 24 h [2]: 0.15; tissue to tissue ratio at 48 h [2]: 0.11; tissue to tissue ratio at 4 h [2]: 0.32; tissue uptake at 4 h [2, 6]: 5.95 ± 0.85 %ID/g; tissue uptake at 4 h ([2]; tumor, read-out: Tumor uptake): 1.93 ± 0.11 %ID/g

Q: Which results are given for `CCCC[C@H](NC(C)=O)C(=O)N[C@@H](CC(=O)O)C(=O)N[C@@H](Cc1c[nH]cn1)C(=O)N[C@H](Cc1ccccc1)C(=O)N[C@@H](CCCNC(=N)N)C(=O)N[C@@H](Cc1c[nH]c2ccccc12)C(=O)NCC(=O)N[C@@H](CCCCNC(=O)CN1CCN(CC(=O)O)CCN(CC(=O)O)CCN(CC(=O)O)CC1)C(=O)N[C@H](CC(=O)O)C(=O)N[C@H](CC(=O)O)C(=O)O` [[^111In]DOTA-NAP-D-Asp-D-Asp] [metal not drawn] (Ac-[Nle]DH[dF]RWGK(DOTA)[dD][dD]-OH; N-terminus and C-terminus assumed)?
A: Internalization profile (in words) (B16-F1 cells; 37°C, 0.5, 2 and 3.5 h, 74 kBq radioligand): excellent internalization profiles; Internalization plateau (in words) (B16-F1 cells; 37°C, 3.5 h): not quite reached; Uptake by other organs (in words) ([3]; 4–48 h): Other organs did not substantially accumulate the radiopeptide; Kidney uptake higher than that of [^111In]DOTA-NAP-amide ([3]; 4 h after injection): 25%; Radioactive load of kidney higher than with the reference peptide ([3]; 24 h after injection): 70%

Q: What does the source list for `CCCC[C@H](NC(C)=O)C(=O)N[C@@H](CC(=O)O)C(=O)N[C@@H](Cc1c[nH]cn1)C(=O)N[C@H](Cc1ccccc1)C(=O)N[C@@H](CCCNC(=N)N)C(=O)N[C@@H](Cc1c[nH]c2ccccc12)C(=O)NCC(=O)N[C@@H](CCCCNC(=O)CN1CCN(CC(=O)O)CCN(CC(=O)O)CCN(CC(=O)O)CC1)C(N)=O` [[^111In]DOTA-NAP-amide, metal not drawn, reference compound]?
A: Metabolite in vivo (in words) ([4]; 4 h after injection, ref Froidevaux and Eberle, unpublished): Lys([^111In]DOTA), a metabolite of internalized [^111In]DOTA-NAP-amide occurring 4 h after injection; tissue to tissue ratio at 24 h [2]: 0.96; tissue to tissue ratio at 48 h [2]: 0.91; tissue to tissue ratio at 4 h [2]: 1.63; tissue uptake at 4 h [2, 6]: 4.77 ± 0.26 %ID/g; tissue uptake at 4 h ([2]; tumor, read-out: Tumor uptake): 7.77 ± 0.35 %ID/g

Q: For `CCCC[C@H](NC(=O)[C@H](Cc1ccc(OP(=O)(O)O)cc1)NC(=O)CNC(=O)CN1CCN(CC(=O)O)CCN(CC(=O)O)CCN(CC(=O)O)CC1)C(=O)N[C@@H](CC(=O)O)C(=O)N[C@@H](Cc1c[nH]cn1)C(=O)N[C@H](Cc1ccccc1)C(=O)N[C@@H](CCCNC(=N)N)C(=O)N[C@@H](Cc1c[nH]c2ccccc12)C(N)=O` [[^111In]DOTA-Phospho-MSH2-9, metal not drawn] ({DOTA}-G[pY][Nle]DH[dF]RW-NH2), which tissue to tissue ratio at 24 h [2] is on record?
A: 1.55

Q: And the tissue to tissue ratio at 48 h [2]?
A: 1.16

Q: What about the tissue to tissue ratio at 4 h [2] of the same compound?
A: 2.75

Q: And the tissue uptake at 4 h [2, 6]?
A: 2.68 ± 0.18 %ID/g

Q: And the tissue uptake at 4 h ([2]; tumor, read-out: Tumor uptake)?
A: 7.33 ± 0.47 %ID/g

Q: For `CCCC[C@H](NC(=O)[C@H](Cc1ccc(OP(=O)(O)O)cc1)NC(=O)CNC(=O)CN1CCN(CC(=O)O)CCN(CC(=O)O)CCN(CC(=O)O)CC1)C(=O)N[C@@H](CC(=O)O)C(=O)N[C@@H](Cc1c[nH]cn1)C(=O)N[C@H](Cc1ccccc1)C(=O)N[C@@H](CCCNC(=N)N)C(=O)N[C@@H](Cc1c[nH]c2ccccc12)C(N)=O` [[^111In]DOTA-Phospho-MSH2-9] [metal not drawn] ({DOTA}-G[pY][Nle]DH[dF]RW-NH2), which “Effect of coinjection of α-MSH on melanoma uptake (in words)” value ([3]; 50 µg α-MSH coinjected, data not shown) is on record?
A: significantly blocked melanoma uptake

Q: What about the “Clearance from the kidney (in words)” value ([3]; 4–48 h) of the same compound?
A: slightly slower

Q: What about the “Uptake by other organs (in words)” value ([3]; 4–48 h) of the same compound?
A: very low and did not exceed the values found with [^111In]DOTA-NAP-amide

Q: And the “Kidney retention lower than that of [^111In]DOTA-NAP-amide” value ([3]; 4 h after injection)?
A: 44%

Q: What about the “Kidney uptake as percentage of that of the reference peptide” value ([3]; 4 h after injection) of the same compound?
A: 56%

Q: What about the “Retention of radioactivity by the tumor” value ([3]; 24 h postinjection, decreased to % of 4 h value) of the same compound?
A: 40%

Q: What about the “Tumor-to-kidney ratio compared with other peptides (in words)” value ([3]; AUC (4–48 h) or overall comparison) of the same compound?
A: threefold higher; also recorded: most favorable tumor-to-kidney ratio of a linear DOTA-MSH radiopeptide reported to date

Q: And the “Kidney uptake/retention compared with reference (in words)” value ([3]; in vivo)?
A: markedly lower

Q: And the “Tumor uptake compared with reference (in words)” value ([3]; in vivo, B16-F1 tumors)?
A: almost identical with that of [^111In]DOTA-NAP-amide; also recorded: about as high as for the reference compound

Q: And the “Kidney uptake compared with other peptides (in words)” value ([3]; peptides of net charge −2 to +2, five of the eight peptides from ref 14)?
A: slightly lower kidney uptake than [^111In-DOTA-Nle^4,Asp^5,D-Phe^7,Lys^11(Suc)]-α-MSH4-11-carboxylate

Q: For “Ac-Nle-cyclo[Asp-His-D-Phe-Arg-Trp-Lys]-NH2 (sidechain bridge or staple) [melanotan II]”, which “Binding affinity (in words)” value (MC1R; cyclic analog compared with α-MSH) is on record?
A: increased binding affinity

Q: What does the source list for “[DOTA-Nle^4,Asp^5,D-Phe^7,Lys^11(Suc)]-α-MSH4-11-carboxylate”?
A: Kidney uptake (in words) ([4]; in vivo): reduced kidney uptake; Tumor uptake (in words) ([4]; in vivo): tumor uptake was also affected; Tumor-to-kidney ratio (in words) ([4]; in vivo): even lower than that of the parent molecule

Q: Which “Binding affinity (in words)” value (MC1R; linear analog compared with α-MSH) does the source give for [Nle^4, D-Phe^7]-α-MSH [NDP-MSH] here?
A: increased binding affinity

Q: Which “MC1R affinity (in words)” value (MC1R) does the source give for “[^111In-DOTA-Nle^4,Asp^5,D-Phe^7,Lys^11(Suc)]-α-MSH4-11-carboxylate” here?
A: lower MC1R affinity

Q: What about the “AUC (4–48 h), tumor-to-kidney” value ([4]; in vivo) of the same compound?
A: 0.62

Q: And the “Kidney uptake (in words)” value ([4]; in vivo)?
A: lowest kidney uptake

Q: What about the “Tumor uptake (in words)” value ([4]; in vivo) of the same compound?
A: reduced uptake by melanoma tumors

Q: With “succinylated lysozyme: succinylated lysozyme, compared to the non-succinylated molecule with six amino groups” as the compound, how does the “Excretion compared to non-succinylated molecule (in words)” value [5] read?
A: dramatically increased
